Counter-ions that a name gives are not always drawn.
Key:
FGFR-1 = molecular target: T1, FGFR-1 (Homo sapiens, UniProt P11362); assay: FGFR-1 high ATP kinase assay (TR-FRET); format: biochemical; conditions: 2 mM ATP, 15 min pre-incubation; compounds of the invention (Table 1A)
T1 construct: human FGFR-1 from amino acids G400 to R800 as in GenBank entry NM_015850; purchased Proqinase 0101-0000-1; host or cells: SF9 insect cells (baculovirus)

mTOR = molecular target: T2, mTOR (Homo sapiens, UniProt P42345); assay: mTOR kinase assay (TR-FRET, for comparative purposes); format: biochemical; conditions: for inhibition at 1 µM: read-out: mTOR % inhibition @ 1 μM, mean inhibition at 1 μM test compound, 40 μM ATP
T2 construct: human mTOR amino acids from 1360 to 2549; purchased Invitrogen 4753; host or cells: insect cells
T2 sequence (P42345 1360-2549): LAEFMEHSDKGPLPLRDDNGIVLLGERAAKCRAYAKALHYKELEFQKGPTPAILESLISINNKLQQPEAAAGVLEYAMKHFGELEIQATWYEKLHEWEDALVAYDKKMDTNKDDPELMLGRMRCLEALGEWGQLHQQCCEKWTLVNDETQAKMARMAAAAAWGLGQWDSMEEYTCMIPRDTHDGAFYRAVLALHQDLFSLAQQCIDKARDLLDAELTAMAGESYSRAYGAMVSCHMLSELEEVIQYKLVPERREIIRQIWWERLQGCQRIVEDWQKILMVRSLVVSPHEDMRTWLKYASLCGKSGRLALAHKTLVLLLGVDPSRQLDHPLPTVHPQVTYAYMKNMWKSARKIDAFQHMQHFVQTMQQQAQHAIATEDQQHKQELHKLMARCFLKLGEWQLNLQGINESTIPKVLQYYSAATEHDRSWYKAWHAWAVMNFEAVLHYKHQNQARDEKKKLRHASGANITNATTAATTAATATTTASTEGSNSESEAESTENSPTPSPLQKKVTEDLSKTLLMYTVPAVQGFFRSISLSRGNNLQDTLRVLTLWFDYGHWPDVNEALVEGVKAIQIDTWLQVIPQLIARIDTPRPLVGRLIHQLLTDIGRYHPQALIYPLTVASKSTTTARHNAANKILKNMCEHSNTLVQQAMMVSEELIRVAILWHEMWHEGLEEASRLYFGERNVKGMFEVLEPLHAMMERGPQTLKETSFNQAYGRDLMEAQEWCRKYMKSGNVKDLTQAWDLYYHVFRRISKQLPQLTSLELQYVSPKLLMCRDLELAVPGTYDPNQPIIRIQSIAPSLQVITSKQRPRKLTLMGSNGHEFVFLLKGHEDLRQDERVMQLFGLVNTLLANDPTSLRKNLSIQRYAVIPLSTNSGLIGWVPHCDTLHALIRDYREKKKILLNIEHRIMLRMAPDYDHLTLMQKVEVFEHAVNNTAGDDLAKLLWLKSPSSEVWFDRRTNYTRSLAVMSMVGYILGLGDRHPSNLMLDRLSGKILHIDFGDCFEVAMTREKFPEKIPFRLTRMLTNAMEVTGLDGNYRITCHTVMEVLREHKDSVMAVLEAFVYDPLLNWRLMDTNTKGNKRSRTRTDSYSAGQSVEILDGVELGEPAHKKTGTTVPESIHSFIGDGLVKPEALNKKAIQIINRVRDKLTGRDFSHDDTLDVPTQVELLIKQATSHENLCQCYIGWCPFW

FGFR-3 = molecular target: T3, FGFR-3 (Homo sapiens, UniProt P22607); assay: FGFR-3 kinase assay (TR-FRET); format: biochemical; conditions: 10 μM ATP, 15 min pre-incubation; compounds of the invention (Table 2A)
T3 construct: human FGFR-3 from amino acids R397 to T806 as in NCBI/Protein entry NP_000133.1; purchased Proqinase 1068-0000-1; host or cells: SF9 insect cells (baculovirus)
T3 sequence (P22607 397-806): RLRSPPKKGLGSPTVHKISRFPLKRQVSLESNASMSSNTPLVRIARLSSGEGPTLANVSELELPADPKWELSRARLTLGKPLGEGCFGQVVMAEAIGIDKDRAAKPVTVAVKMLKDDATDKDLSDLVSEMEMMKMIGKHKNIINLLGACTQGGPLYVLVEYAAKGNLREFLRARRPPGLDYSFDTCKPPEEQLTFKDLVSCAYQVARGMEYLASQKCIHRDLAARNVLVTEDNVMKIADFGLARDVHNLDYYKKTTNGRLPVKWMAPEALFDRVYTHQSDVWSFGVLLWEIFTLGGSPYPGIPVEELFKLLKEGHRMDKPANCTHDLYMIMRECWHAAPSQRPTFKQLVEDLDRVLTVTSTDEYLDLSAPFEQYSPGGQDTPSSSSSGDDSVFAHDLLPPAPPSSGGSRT

[1] = test system: Human umbilical vein endothelial cells (HUVEC); assay: Inhibition of hFGF-2 mediated HUVEC proliferation; format: cell-based; conditions: 72 h

T1 sequence (P11362 402-822): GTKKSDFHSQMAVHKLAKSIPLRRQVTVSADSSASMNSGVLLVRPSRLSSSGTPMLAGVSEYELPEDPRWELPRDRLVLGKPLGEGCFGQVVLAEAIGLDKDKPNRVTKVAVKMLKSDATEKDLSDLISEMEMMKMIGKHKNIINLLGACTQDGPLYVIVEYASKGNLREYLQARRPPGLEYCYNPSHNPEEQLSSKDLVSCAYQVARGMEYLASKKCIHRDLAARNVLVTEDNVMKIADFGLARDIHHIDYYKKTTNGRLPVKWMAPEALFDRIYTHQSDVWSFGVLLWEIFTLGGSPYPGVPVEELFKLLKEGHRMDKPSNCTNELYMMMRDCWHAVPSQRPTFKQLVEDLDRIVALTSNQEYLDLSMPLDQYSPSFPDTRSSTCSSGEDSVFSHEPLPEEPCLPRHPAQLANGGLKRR

Structure (SMILES): CCOCc1c(-c2cc3cc(C)cc(OC)c3s2)c2c(N)ncnn2c1CN1CCN(C(C)=O)CC1 [Example 11, 1-(4-{[4-Amino-6-(ethoxymethyl)-5-(7-methoxy-5-methyl-1-benzothiophen-2-yl)pyrrolo[2,1-f][1,2,4]triazin-7-yl]methyl}piperazin-1-yl)ethanone dihydrochloride]
- IC50 (FGFR-1): 6.5 nM
- inhibition at 1 µM (mTOR): 33.2%

Structure (SMILES): COCc1c(-c2cc3cc(C)cc(OC)c3s2)c2c(N)ncnn2c1CN1CC[C@](C)(N)C1 [Example 14, 7-{[(3S)-3-Amino-3-methylpyrrolidin-1-yl]methyl}-6-(methoxymethyl)-5-(7-methoxy-5-methyl-1-benzothiophen-2-yl)pyrrolo[2,1-f][1,2,4]triazin-4-amine trihydrochloride]
- inhibition at 1 µM (mTOR): 15.7%
- IC50 (FGFR-3): 2.5 nM

Structure (SMILES): COCc1c(-c2cc3cc(C)cc(OC)c3s2)c2c(N)ncnn2c1CN1CCN(C(C)=O)CC1 [Example 16, 1-(4-{[4-Amino-6-(methoxymethyl)-5-(7-methoxy-5-methyl-1-benzothiophen-2-yl)pyrrolo[2,1-f]-[1,2,4]triazin-7-yl]methyl}piperazin-1-yl)ethanone dihydrochloride]
- inhibition at 1 µM (mTOR): 36.9%
- IC50 (FGFR-3): 9.4 nM

Structure (SMILES): COc1cc(C)cc2cc(-c3c(COCCO)c(CN4CCNCC4)n4ncnc(N)c34)sc12 [Example 22, 2-{[4-Amino-5-(7-methoxy-5-methyl-1-benzothiophen-2-yl)-7-(piperazin-1-ylmethyl)pyrrolo[2,1-f]-[1,2,4]triazin-6-yl]methoxy}ethanol dihydrochloride]
- IC50 (FGFR-1): 0.9 nM
- inhibition at 1 µM (mTOR): 17.6%
- IC50 (FGFR-3): 4.7 nM

Structure (SMILES): COc1cc(C)cc2cc(-c3c(COCCN)c(CN4CCNCC4)n4ncnc(N)c34)sc12 [Example 30, 6-[(2-Aminoethoxy)methyl]-5-(7-methoxy-5-methyl-1-benzothiophen-2-yl)-7-(piperazin-1-ylmethyl)pyrrolo[2,1-f][1,2,4]triazin-4-amine trihydrochloride]
- IC50 (FGFR-1): 2.8 nM
- inhibition at 1 µM (mTOR): 21.1%
- IC50 (FGFR-3): 6.4 nM

Structure (SMILES): CCNCc1c(-c2cc3cc(C)cc(OC)c3s2)c2c(N)ncnn2c1CN1CCNCC1 [Example 38, 6-[(Ethylamino)methyl]-5-(7-methoxy-5-methyl-1-benzothiophen-2-yl)-7-(piperazin-1-ylmethyl)pyrrolo[2,1-f][1,2,4]triazin-4-amine trihydrochloride]
- IC50 (FGFR-1): 6.9 nM
- inhibition at 1 µM (mTOR): 20.8%

Structure (SMILES): COc1cc(C)cc2cc(-c3c(CNCCO)c(CN4CCNCC4)n4ncnc(N)c34)sc12 [Example 39, 2-({[4-Amino-5-(7-methoxy-5-methyl-1-benzothiophen-2-yl)-7-(piperazin-1-ylmethyl)pyrrolo[2,1-f]-[1,2,4]triazin-6-yl]methyl}amino)ethanol trihydrochloride]
- IC50 (FGFR-1): 1.1 nM
- inhibition at 1 µM (mTOR): 11.5%
- IC50 (FGFR-3): 4.9 nM

Structure (SMILES): COc1cc(C)cc2cc(-c3c(CNC4CCC4)c(CN4CCNCC4)n4ncnc(N)c34)sc12 [Example 44, 6-[(Cyclobutylamino)methyl]-5-(7-methoxy-5-methyl-1-benzothiophen-2-yl)-7-(piperazin-1-ylmethyl)pyrrolo[2,1-f][1,2,4]triazin-4-amine trihydrochloride]
- IC50 (FGFR-1): 2.1 nM
- inhibition at 1 µM (mTOR): 13.3%

Structure (SMILES): COc1cc(C)cc2cc(-c3c(CN4CCCC4)c(CN4CCNCC4)n4ncnc(N)c34)sc12 [Example 45, 5-(7-Methoxy-5-methyl-1-benzothiophen-2-yl)-7-(piperazin-1-ylmethyl)-6-(pyrrolidin-1-ylmethyl)pyrrolo[2,1-f][1,2,4]triazin-4-amine trihydrochloride]
- IC50 (FGFR-1): 3.4 nM
- inhibition at 1 µM (mTOR): 15.5%
- IC50 (FGFR-3): 9.7 nM

Structure (SMILES): COc1cc(C)cc2cc(-c3c(CNC4CC4)c(CN4CCNCC4)n4ncnc(N)c34)sc12 [Example 46, 6-[(Cyclopropylamino)methyl]-5-(7-methoxy-5-methyl-1-benzothiophen-2-yl)-7-(piperazin-1-ylmethyl)pyrrolo[2,1-f][1,2,4]triazin-4-amine trihydrochloride]
- IC50 (FGFR-1): 3.2 nM
- inhibition at 1 µM (mTOR): 11%
- IC50 (FGFR-3): 8.1 nM

Structure (SMILES): COc1cc(C)cc2cc(-c3c(CNCC4CC4)c(CN4CCNCC4)n4ncnc(N)c34)sc12 [Example 47, 6-{[(Cyclopropylmethyl)amino]methyl}-5-(7-methoxy-5-methyl-1-benzothiophen-2-yl)-7-(piperazin-1-ylmethyl)pyrrolo[2,1-f][1,2,4]triazin-4-amine trihydrochloride]
- IC50 (FGFR-1): 1.7 nM
- inhibition at 1 µM (mTOR): 14.7%
- IC50 (FGFR-3): 3.4 nM

Structure (SMILES): COc1cc(C)cc2cc(-c3c(-c4cnco4)c(CN4CCNCC4)n4ncnc(N)c34)sc12 [Example 61, 5-(7-Methoxy-5-methyl-1-benzothiophen-2-yl)-6-(1,3-oxazol-5-yl)-7-(piperazin-1-ylmethyl)pyrrolo[2,1-f][1,2,4]triazin-4-amine trihydrochloride]
- inhibition at 1 µM (mTOR): 15.9%
- IC50 (FGFR-3): 0.9 nM

Structure (SMILES): COc1cc(C)cc2cc(-c3c(CN)c(CN4CCNCC4)n4ncnc(N)c34)sc12 [Example 62, 6-(Aminomethyl)-5-(7-methoxy-5-methyl-1-benzothiophen-2-yl)-7-(piperazin-1-ylmethyl)pyrrolo[2,1-f][1,2,4]triazin-4-amine trihydrochloride]
- IC50 (FGFR-1): 3.1 nM
- inhibition at 1 µM (mTOR): 0.2%
- IC50 (FGFR-3): 11 nM

Structure (SMILES): COc1cc(C)cc2cc(-c3c(CNC(C)=O)c(CN4CCNCC4)n4ncnc(N)c34)sc12 [Example 64, N-{[4-Amino-5-(7-methoxy-5-methyl-1-benzothiophen-2-yl)-7-(piperazin-1-ylmethyl)pyrrolo[2,1-f][1,2,4]triazin-6-yl]methyl}acetamide dihydrochloride]
- IC50 (FGFR-1): 1 nM
- inhibition at 1 µM (mTOR): 1.1%
- IC50 (FGFR-3): 2.9 nM

Structure (SMILES): COc1cc(C)cc2cc(-c3c(CO)c(C)n4ncnc(N)c34)sc12 [Example 75, [4-Amino-5-(7-methoxy-5-methyl-1-benzothiophen-2-yl)-7-methylpyrrolo[2,1-f][1,2,4]triazin-6-yl]-methanol]
- IC50 [1]: 1.5 nM
- inhibition at 1 µM (mTOR): 10.2%

Structure (SMILES): COc1cc(C)cc2cc(-c3c(CN4CCNC(=O)C4)c(C)n4ncnc(N)c34)sc12 [Example 76, 4-{[4-Amino-5-(7-methoxy-5-methyl-1-benzothiophen-2-yl)-7-methylpyrrolo[2,1-f][1,2,4]triazin-6-yl]methyl}piperazin-2-one]
- IC50 [1]: 1.5 nM
- inhibition at 1 µM (mTOR): 8.5%

Structure (SMILES): COc1cc(C)cc2cc(-c3c(CNCC(C)(C)O)c(C)n4ncnc(N)c34)sc12 [Example 77, 1-({[4-Amino-5-(7-methoxy-5-methyl-1-benzothiophen-2-yl)-7-methylpyrrolo[2,1-f][1,2,4]triazin-6-yl]methyl}amino)-2-methylpropan-2-ol formiate]
- IC50 [1]: 3.2 nM
- mTOR % inhibition @ 1 μM (mTOR; mean inhibition at 1 μM test compound, 40 μM ATP): 0.7%

Structure (SMILES): COc1cc(C)cc2cc(-c3c(CO)c(Cl)n4ncnc(N)c34)sc12 [Example 79, [4-Amino-7-chloro-5-(7-methoxy-5-methyl-1-benzothiophen-2-yl)pyrrolo[2,1-f][1,2,4]triazin-6-yl]-methanol]
- IC50 [1]: 3.5 nM
- inhibition at 1 µM (mTOR): 14.7%

Structure (SMILES): COc1cc(C)cc2cc(-c3c(CNCC(C)(C)O)c(Cl)n4ncnc(N)c34)sc12 [Example 81, 1-({[4-Amino-7-chloro-5-(7-methoxy-5-methyl-1-benzothiophen-2-yl)pyrrolo[2,1-f][1,2,4]triazin-6-yl]methyl}amino)-2-methylpropan-2-ol formiate]
- IC50 [1]: 1.6 nM
- inhibition at 1 µM (mTOR): 4.1%

Structure (SMILES): COc1cc(C)cc2cc(-c3c(C)c(CN4CCNCC4)n4ncnc(N)c34)sc12 [Example 84, 5-(7-Methoxy-5-methyl-1-benzothiophen-2-yl)-6-methyl-7-(piperazin-1-ylmethyl)pyrrolo[2,1-f][1,2,4]triazin-4-amine formiate]
- IC50 [1]: 46.6 nM
- inhibition at 1 µM (mTOR): 9.1%

Source: patent publication US20220153745A1, “DISUBSTITUTED BENZOTHIENYL-PYRROLOTRIAZINES AND THEIR USE AS FGFR KINASE INHIBITORS” (Bayer Intellectual Property GmbH, priority 2011, published 2022)
